What was measured:
[1] = biological target: T1, KRas-mediated phosphorylation of ERK in H358 cells (Homo sapiens, UniProt P01116, G12C); assay: Inhibition of KRas-mediated phosphorylation of ERK (HTRF), H358 cells; format: cell-based; conditions: HTRF pERK, 3 h incubation
T1 construct: pERK HTRF read-out

[2] = biological target: T2, KRas G12C (Homo sapiens, UniProt P01116, G12C); assay: KRas binding assay, TR-FRET displacement of Cy5 labelled tracer; conditions: 60-minute incubation at room temperature, 1% DMSO, pH 7.5
T2 construct: Biotinylated KRas (corresponding to amino acids 1-169, produced at Accelegan Inc.); biotin (biotinylated); purchased Accelegan Inc
Summary of the method: (§1)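 Truncated KRas (1-169), biotinylated, Tb-streptavidin donor; one-hour room-temperature incubation; IC50 by four-parameter curve fitting.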

[3] = biological target: T3, KRas WT (Homo sapiens, UniProt P01116); assay: as above; conditions: 60-minute incubation at room temperature, 1% DMSO, pH 7.5
T3 construct: Biotinylated KRas (corresponding to amino acids 1-169, produced at Accelegan Inc.); biotin (biotinylated); purchased Accelegan Inc
Summary of the method: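 Displacement measured on KRas residues 1-169 (biotinylated, terbium-streptavidin labelled); 1 h, RT; 1% DMSO final; HEPES pH 7.5 / MgCl2 / Tween-20 / DTT. IC50: 4-parameter fit.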

[4] = biological target: T4, KRas G12S (Homo sapiens, UniProt P01116, G12S); assay: as above; conditions: 60-minute incubation at room temperature, 1% DMSO, pH 7.5
T4 construct: Biotinylated KRas (corresponding to amino acids 1-169, produced at Accelegan Inc.); biotin (biotinylated); purchased Accelegan Inc
Summary of the method: as §1

[5] = biological target: T5, KRas-mediated phosphorylation of ERK in A549 cells (Homo sapiens, UniProt P01116, G12S); assay: Inhibition of KRas-mediated phosphorylation of ERK (HTRF), A549 cells; format: cell-based; conditions: HTRF pERK, 3 h incubation
T5 construct: pERK HTRF read-out

[6] = biological target: T6, KRas-mediated phosphorylation of ERK in MKN1 cells (Homo sapiens, UniProt P01116); assay: Inhibition of KRas-mediated phosphorylation of ERK (HTRF), MKN1 cells; format: cell-based; conditions: MKN1 cells (KRas WT); HTRF pERK; 3 h incubation
T6 construct: pERK HTRF read-out
Experimental: Inhibition of KRas Phosphorylation of ERK (HTRF) by Exemplary Compounds of Formula (Ia) or (Ib)
Cisbio HTRF Advanced pERK Assay Catalog #64AERPEH • Cells: MKN1, PSN1 • Procedure: • 1. Day 1: Seed 6,000 cells/well −25 μl/well in 384-well white solid bottom plate; RPM1_10% FBS. Incubate overnight at 37 °C/5% CO2. • 2.

T2 sequence (P01116 1-169 isoform P01116-2 G12C): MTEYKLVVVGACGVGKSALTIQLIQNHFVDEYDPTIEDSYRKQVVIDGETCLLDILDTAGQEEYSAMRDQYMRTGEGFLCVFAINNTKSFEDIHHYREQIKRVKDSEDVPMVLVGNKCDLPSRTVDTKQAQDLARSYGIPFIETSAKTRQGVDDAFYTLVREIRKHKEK
T1 sequence (P01116 1-188 isoform P01116-2 G12C): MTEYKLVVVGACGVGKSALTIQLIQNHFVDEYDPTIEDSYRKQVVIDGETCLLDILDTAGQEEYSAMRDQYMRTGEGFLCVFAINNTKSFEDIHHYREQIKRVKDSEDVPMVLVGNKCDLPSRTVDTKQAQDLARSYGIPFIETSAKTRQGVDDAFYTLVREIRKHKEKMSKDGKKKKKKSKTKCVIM
T3 sequence (P01116 1-169 isoform P01116-2): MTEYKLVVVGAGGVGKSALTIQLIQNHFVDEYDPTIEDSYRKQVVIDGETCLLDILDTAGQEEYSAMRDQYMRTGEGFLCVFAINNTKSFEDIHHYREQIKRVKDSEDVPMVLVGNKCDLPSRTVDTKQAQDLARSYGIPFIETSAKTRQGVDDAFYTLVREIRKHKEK
T6 sequence (P01116 1-188 isoform P01116-2): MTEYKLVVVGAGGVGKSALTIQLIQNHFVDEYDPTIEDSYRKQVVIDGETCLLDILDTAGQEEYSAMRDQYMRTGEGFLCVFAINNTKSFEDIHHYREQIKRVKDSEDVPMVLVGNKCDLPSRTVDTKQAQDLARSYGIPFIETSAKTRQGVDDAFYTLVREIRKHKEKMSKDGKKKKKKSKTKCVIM
T4 sequence (P01116 1-169 isoform P01116-2 G12S): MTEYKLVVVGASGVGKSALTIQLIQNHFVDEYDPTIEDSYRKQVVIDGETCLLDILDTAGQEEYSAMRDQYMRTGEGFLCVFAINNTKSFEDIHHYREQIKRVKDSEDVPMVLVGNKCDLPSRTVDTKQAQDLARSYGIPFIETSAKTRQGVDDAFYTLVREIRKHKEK
T5 sequence (P01116 1-188 isoform P01116-2 G12S): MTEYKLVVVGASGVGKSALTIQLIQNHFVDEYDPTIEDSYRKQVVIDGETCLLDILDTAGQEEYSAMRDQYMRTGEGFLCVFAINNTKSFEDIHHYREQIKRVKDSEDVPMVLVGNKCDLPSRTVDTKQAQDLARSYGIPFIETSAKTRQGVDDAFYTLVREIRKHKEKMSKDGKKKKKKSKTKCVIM

SMILES	IC50 [1] [nM]	IC50 [2] [nM]	IC50 [3] [nM]	IC50 [4] [nM]	IC50 [5] [nM]	IC50 [6] [nM]
CCc1c(F)ccc2cc(O)cc(-c3ncc4c(N5CC[C@@H](C(=O)n6ccc(C)n6)[C@H](C)C5)nc(OC[C@@]56CCCN5C[C@H](F)C6)nc4c3F)c12 [Example 71, ((3S,4R)-1-(7-(8-ethyl-7-fluoro-3-hydroxynaphthalen-1-yl)-8-fluoro-2-(((2R,7aS)-2-fluorotetrahydro-1H-pyrrolizin-7a(5H)-yl)methoxy)pyrido[4,3-d]pyrimidin-4-yl)-3-methylpiperidin-4-yl)(3-methyl-1H-pyrazol-1-yl)methanone]	930	1690	2090	2500	2030	8470
CCc1c(F)ccc2cc(O)cc(-c3ncc4c(N(C)CCCC(=O)N(C)C(C)=O)nc(OC[C@@]56CCCN5C[C@H](F)C6)nc4c3F)c12 [Example 221, N-acetyl-4-((7-(8-ethyl-7-fluoro-3-hydroxynaphthalen-1-yl)-8-fluoro-2-(((2R,7aS)-2-fluorotetrahydro-1H-pyrrolizin-7a(5H)-yl)methoxy)pyrido[4,3-d]pyrimidin-4-yl)(methyl)amino)-N-methylbutanamide]	485	43	101	11	26	409
CCc1c(F)ccc2cc(O)cc(-c3ncc4c(N5CCC(C(=O)n6ccc(N(C)C)n6)CC5)nc(OC[C@@]56CCCN5C[C@H](F)C6)nc4c3F)c12 [Example 58, (3-(dimethylamino)-1H-pyrazol-1-yl)(1-(7-(8-ethyl-7-fluoro-3-hydroxynaphthalen-1-yl)-8-fluoro-2-(((2R,7aS)-2-fluorotetrahydro-1H-pyrrolizin-7a(5H)-yl)methoxy)pyrido[4,3-d]pyrimidin-4-yl)piperidin-4-yl)methanone]	677	108	89	221	338	427
CN(C(=O)C1CCN(c2nc(OC[C@@]34CCCN3C[C@H](F)C4)nc3c(F)c(-c4ccc(F)c5sc(N)c(C#N)c45)c(Cl)cc23)CC1)c1cccnc1 [Example 289, 1-(7-(2-amino-3-cyano-7-fluorobenzo[b]thiophen-4-yl)-6-chloro-8-fluoro-2-(((2R,7aS)-2-fluorotetrahydro-1H-pyrrolizin-7a(5H)-yl)methoxy)quinazolin-4-yl)-N-methyl-N-(pyridin-3-yl)piperidine-4-carboxamide]	81	10	5	18	271	33
N#Cc1c(N)sc2c(F)ccc(-c3c(Cl)cc4c(N5CCC(C(=O)Oc6cccc(F)c6)CC5)nc(OC[C@@]56CCCN5C[C@H](F)C6)nc4c3F)c12 [Example 302, 3-fluorophenyl 1-(7-(2-amino-3-cyano-7-fluorobenzo[b]thiophen-4-yl)-6-chloro-8-fluoro-2-(((2R,7aS)-2-fluorotetrahydro-1H-pyrrolizin-7a(5H)-yl)methoxy)quinazolin-4-yl)piperidine-4-carboxylate]	18	12	164	25	79	286
Cc1ccn(C(=O)C2CCN(c3nc(OC[C@@]45CCCN4C[C@H](F)C5)nc4c(F)c(-c5ccc(F)c6sc(N)c(C#N)c56)c(Cl)cc34)CC2)n1 [Example 133, 2-amino-4-(6-chloro-8-fluoro-2-(((2R,7aS)-2-fluorotetrahydro-1H-pyrrolizin-7a(5H)-yl)methoxy)-4-(4-(3-methyl-1H-pyrazole-1-carbonyl)piperidin-1-yl)quinazolin-7-yl)-7-fluorobenzo[b]thiophene-3-carbonitrile]	20	17	17	7	7	105
CCc1c(F)ccc2cc(O)cc(-c3ncc4c(N5CCCC(C(=O)n6ccc(C)n6)CC5)nc(OC[C@@]56CCCN5C[C@H](F)C6)nc4c3F)c12 (stereo partly drawn) [Example 63, (1-(7-(8-ethyl-7-fluoro-3-hydroxynaphthalen-1-yl)-8-fluoro-2-(((2R,7aS)-2-fluorotetrahydro-1H-pyrrolizin-7a(5H)-yl)methoxy)pyrido[4,3-d]pyrimidin-4-yl)azepan-4-yl)(3-methyl-1H-pyrazol-1-yl)methanone]	3250	96	145	20	40	1460
CCc1c(F)ccc2cc(O)cc(-c3ncc4c(N5CC[C@@H]6[C@H](C5)[C@@H]6C(=O)n5ccc(C)n5)nc(OC[C@@]56CCCN5C[C@H](F)C6)nc4c3F)c12 [Example 157, ((1S,6R,7R)-3-(7-(8-ethyl-7-fluoro-3-hydroxynaphthalen-1-yl)-8-fluoro-2-(((2R,7aS)-2-fluorotetrahydro-1H-pyrrolizin-7a(5H)-yl)methoxy)pyrido[4,3-d]pyrimidin-4-yl)-3-azabicyclo[4.1.0]heptan-7-yl)(3-methyl-1H-pyrazol-1-yl)methanone]	2110	84	32	122	7590	955
CCc1c(F)ccc2cc(O)cc(-c3ncc4c(N5C[C@H]6C[C@@H](C(=O)n7ccc(C)n7)C[C@H]6C5)nc(OC[C@@]56CCCN5C[C@H](F)C6)nc4c3F)c12 [Example 128, ((3aR,5S,6aS)-2-(7-(8-ethyl-7-fluoro-3-hydroxynaphthalen-1-yl)-8-fluoro-2-(((2R,7aS)-2-fluorotetrahydro-1H-pyrrolizin-7a(5H)-yl)methoxy)pyrido[4,3-d]pyrimidin-4-yl)octahydrocyclopenta[c]pyrrol-5-yl)(3-methyl-1H-pyrazol-1-yl)methanone]	1540	93	1190	11	57	7430
CCc1c(F)ccc2cc(O)cc(-c3ncc4c(N5CCCCCC(C(=O)n6ccc(C)n6)C5)nc(OC[C@@]56CCCN5C[C@H](F)C6)nc4c3F)c12 (stereo partly drawn) [Example 55, (1-(7-(8-ethyl-7-fluoro-3-hydroxynaphthalen-1-yl)-8-fluoro-2-(((2R,7aS)-2-fluorotetrahydro-1H-pyrrolizin-7a(5H)-yl)methoxy)pyrido[4,3-d]pyrimidin-4-yl)azocan-3-yl)(3-methyl-1H-pyrazol-1-yl)methanone]	90	5	7	28	116	50
COc1ccn(C(=O)C2CCCN(c3nc(OC[C@@]45CCCN4C[C@H](F)C5)nc4c(F)c(-c5ccc(F)c6sc(N)c(C#N)c56)c(Cl)cc34)CC2)n1 (stereo partly drawn) [Example 140, 2-amino-4-(6-chloro-8-fluoro-2-(((2R,7aS)-2-fluorotetrahydro-1H-pyrrolizin-7a(5H)-yl)methoxy)-4-(4-(3-methoxy-1H-pyrazole-1-carbonyl)azepan-1-yl)quinazolin-7-yl)-7-fluorobenzo[b]thiophene-3-carbonitrile]	22	11	15	3	8	178
CCN(C(C)=O)C(=O)CCCN(C)c1nc(OC[C@@]23CCCN2C[C@H](F)C3)nc2c(F)c(-c3ccc(F)c4sc(N)c(C#N)c34)c(Cl)cc12 [Example 291, N-acetyl-4-((7-(2-amino-3-cyano-7-fluorobenzo[b]thiophen-4-yl)-6-chloro-8-fluoro-2-(((2R,7aS)-2-fluorotetrahydro-1H-pyrrolizin-7a(5H)-yl)methoxy)quinazolin-4-yl)(methyl)amino)-N-ethylbutanamide]	81	6	12	7	65	134
CCc1c(F)ccc2cc(O)cc(-c3ncc4c(N5C[C@@H]6C[C@@H](C(=O)n7ccc(C)n7)[C@@H]6C5)nc(OC[C@@]56CCCN5C[C@H](F)C6)nc4c3F)c12 [Example 162, ((1R,5R,6R)-3-(7-(8-ethyl-7-fluoro-3-hydroxynaphthalen-1-yl)-8-fluoro-2-(((2R,7aS)-2-fluorotetrahydro-1H-pyrrolizin-7a(5H)-yl)methoxy)pyrido[4,3-d]pyrimidin-4-yl)-3-azabicyclo[3.2.0]heptan-6-yl)(3-methyl-1H-pyrazol-1-yl)methanone]	> 10000	673	1050	491	6480	> 10000
